Laboratory results published in patent US20240360146A1, “BRUTON'S TYROSINE KINASE AND MUTANT DEGRADER, COMPOSITION AND APPLICATION THEREOF” (HANGZHOU HEALZEN THERAPEUTICS CO., LTD., priority 2021, published 2024).

biological target: T1, BTK (Homo sapiens, UniProt Q06187); assay: BTK degradation activity test in Mino cells; type: cell-based; conditions: 16 h incubation, Western blot or Elisa
T1 construct: endogenous in cells; host or cells: Mino cells
In short: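 Mino cells treated with a concentration series of compound for 16 h, then lysed; total protein by BCA. BTK quantified by Western blot or ELISA, degradation rate calculated against blank control, and DC50 fitted from the degradation curve.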

T1 sequence (Q06187 whole entry): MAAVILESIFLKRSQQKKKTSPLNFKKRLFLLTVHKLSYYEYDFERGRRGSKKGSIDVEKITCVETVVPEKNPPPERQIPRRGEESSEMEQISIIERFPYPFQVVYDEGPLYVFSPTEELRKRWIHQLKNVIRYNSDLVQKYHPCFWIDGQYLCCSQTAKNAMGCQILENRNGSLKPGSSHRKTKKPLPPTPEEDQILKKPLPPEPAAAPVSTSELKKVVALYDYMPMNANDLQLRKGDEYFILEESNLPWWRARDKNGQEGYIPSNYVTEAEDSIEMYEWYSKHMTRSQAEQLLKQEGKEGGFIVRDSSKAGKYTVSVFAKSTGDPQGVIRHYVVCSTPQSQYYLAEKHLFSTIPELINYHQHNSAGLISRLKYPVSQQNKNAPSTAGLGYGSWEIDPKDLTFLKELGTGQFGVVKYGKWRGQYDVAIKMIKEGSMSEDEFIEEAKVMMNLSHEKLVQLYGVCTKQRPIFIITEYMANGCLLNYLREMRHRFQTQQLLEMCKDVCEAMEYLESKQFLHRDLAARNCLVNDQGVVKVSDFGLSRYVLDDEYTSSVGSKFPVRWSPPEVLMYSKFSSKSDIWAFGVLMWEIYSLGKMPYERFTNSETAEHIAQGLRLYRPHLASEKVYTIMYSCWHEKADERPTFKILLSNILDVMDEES

Question: `NC(=O)c1ncc(N2CCCC(N3CCN(C4CCCC4)C3=O)C2)nc1Nc1ccc(C2(F)CCN(CC3CCN(c4ccc5c(c4)C(=O)N(C4CCC(=O)NC4=O)C5=O)C3)CC2)cc1` (centres unmarked) [Compound 040, 5-(3-(3-cyclopentyl-2-oxoimidazolin-1-yl)piperidin-1-yl)-3-((4-(1-((1-(2-(2,6-dioxopiperidin-3-yl)-1,3-dioxoisoindolin-5-yl)pyrrolidin-3-yl)methyl)-4-fluoropiperidin-4-yl)phenyl)amino)pyrazin-2-carboxamide] was tested. Which DC50 did it give?
Answer: < 1 nM

Question: How did the DC50 turn out when `Cc1cc(N2CC(CC(=O)N3CCC(c4ccc(Nc5nc(N6CCC[C@@H](N7CCN(C)C7=O)C6)nnc5C(N)=O)c(CO)c4)CC3)C2)ccc1N1CCC(=O)NC1=O` [Compound 239, (R)-5-((4-(1-(2-(1-(4-(2,4-dioxotetrahydropyrimidin-1(2H)-yl)-3-methylphenyl)azetidin-3-yl)acetyl)piperidin-4-yl)-2-(hydroxymethyl)phenyl)amino)-3-(3-(3-methyl-2-oxoimidazolidin-1-yl)piperidin-1-yl)-1,2,4-triazin-6-carboxamide] was run?
Answer: < 1 nM

Question: With `CN1CCN([C@@H]2CCCN(c3nnc(C(N)=O)c(Nc4ccc(N5CCN(C[C@H]6CCN(c7ccc(C(=O)N[C@H]8CCC(=O)NC8=O)nc7)C6)CC5)c(F)c4)n3)C2)C1=O` [Compound 153, 5-((4-(4-(((R)-1-(6-(((S)-2,6-dioxopiperidin-3-yl)carbamoyl)pyridin-3-yl)pyrrolidin-3-yl)methyl)piperazin-1-yl)-3-fluorophenyl)amino)-3-((R)-3-(3-methyl-2-oxoimidazolin-1-yl)piperidin-1-yl)-1,2,4-triazin-6-carboxamide] as the compound, how does the DC50 read?
Answer: < 1 nM

Question: `CC1(c2ccc(Nc3nc(N4CCCC(N5CCN(C6COC6)C5=O)C4)cnc3C(N)=O)cc2)CCN(C2CCN(c3ccc4c(c3)CN(C3CCC(=O)NC3=O)C4=O)CC2)CC1` (centres unmarked) [Compound 013, 3-((4-(1′-(2-(2,6-dioxopiperidin-3-yl)-1-oxoisoindol-5-yl)-4-methyl-[1,4′-bipiperidin]-4-yl)phenyl)amino)-5-(3-(3-(oxetan-3-yl)-2-oxoimidazolin-1-yl)piperidin-1-yl)pyrazin-2-carboxamide] was tested. Which DC50 did it give?
Answer: < 1 nM

Question: Which DC50 does the source give for `CN1CCN([C@@H]2CCCN(c3nnc(C(N)=O)c(Nc4ccc(N5CCN(CC6CCN(c7ccc(N8CCC(=O)NC8=O)cc7P(C)(C)=O)CC6)CC5)c(F)c4)n3)C2)C1=O` [Compound 198, (R)-5-((4-(4-((1-(2-(dimethylphosphoryl)-4-(2,4-dioxotetrahydropyrimidin-1(2H)-yl)phenyl)piperidin-4-yl)methyl)piperazin-1-yl)-3-fluorophenyl)amino)-3-(3-(3-methyl-2-oxoimidazolidin-1-yl)piperidin-1-yl)-1,2,4-triazin-6-carboxamide] here?
Answer: < 1 nM

Question: `NC(=O)c1nnc(N2CCCC(N3CC4CCCN4C3=O)C2)nc1Nc1ccc(C2CCN(CC3CCN(c4ccc5c(c4)C(=O)N(C4CCC(=O)NC4=O)C5=O)CC3)CC2)cc1` (centres unmarked) [Compound 070, 5-((4-(1-((1-(2-(2,6-dioxopiperidin-3-yl)-1,3-dioxoisoindol-5-yl)piperidin-4-yl)methyl)piperidin-4-yl)phenyl)amino)-3-(3-(3-oxytrihydro-1H-pyrrolo[1,2-c]imidazol-2(3H)-yl)piperidin-1-yl)-1,2,4-triazin-6-carboxamide] was tested. Which DC50 did it give?
Answer: < 1 nM

Question: How did the DC50 turn out when `CN1C(=O)N(C2CCCN(c3cnc(C(N)=O)c(Nc4ccc(C5(C)CCN(C6CN(c7ccc8c(c7)C(=O)N(C7CCC(=O)NC7=O)C8=O)C6)CC5)cc4)n3)C2)CC12CC2` (centres unmarked) [Compound 010, 3-((4-(1-(1-(2-(2,6-dioxopiperidin-3-yl)-1,3-dioxoisoindol-5-yl)azetidin-3-yl)-4-methylpiperidin-4-yl)phenyl)amino)-5-(3-(4-methyl-5-oxo-4,6-diazaspirocyclo[2.4]heptan-6-yl)piperidin-1-yl)pyrazin-2-carboxamide] was run?
Answer: > 1 nM

Question: For `CN1CCN([C@@H]2CCCN(c3nnc(C(N)=O)c(Nc4ccc(C5CCN(C[C@@H]6CCN(c7ccc8c(c7)C(=O)N(C7CCC(=O)NC7=O)C8=O)C6)CC5)c(F)c4)n3)C2)C1=O` (stereo partly drawn) [Compound 157, 5-((4-(1-(((3S)-1-(2-(2,6-dioxopiperidin-3-yl)-1,3-dioxoisoindolin-5-yl)pyrrolidin-3-yl)methyl)piperidin-4-yl)-3-fluorophenyl)amino)-3-((R)-3-(3-methyl-2-oxoimidazolin-1-yl)piperidin-1-yl)-1,2,4-triazin-6-carboxamide], which DC50 is on record?
Answer: < 1 nM

Question: Which DC50 does the source give for `CN1CCN([C@@H]2CCCN(c3nnc(C(N)=O)c(Nc4ccc(N5CCN(CC6CCN(c7ccc8c(C9CCC(=O)NC9=O)nn(C)c8c7)C6)CC5)c(F)c4)n3)C2)C1=O` (stereo partly drawn) [Compound 212, 5-((4-(4-((1-(3-(2,6-dioxopiperidin-3-yl)-1-methyl-1H-indazol-6-yl)pyrrolidin-3-yl)methyl)piperazin-1-yl)-3-fluorophenyl)amino)-3-((R)-3-(3-methyl-2-oxoimidazolidin-1-yl)piperidin-1-yl)-1,2,4-triazin-6-carboxamide] here?
Answer: < 1 nM

Question: Which DC50 does the source give for `CN1CCN([C@@H]2CCCN(c3nnc(C(N)=O)c(Nc4ccc(N5CCN(CC6CCN(c7ccc8c9c(cccc79)C(=O)N8C7CCC(=O)NC7=O)CC6)CC5)c(F)c4)n3)C2)C1=O` (stereo partly drawn) [Compound 247, 5-((4-(4-((1-(1-(2,6-dioxopiperidin-3-yl)-2-oxo-1,2-dihydrobenzo[cd]indol-6-yl)piperidin-4-yl)methyl)piperazin-1-yl)-3-fluorophenyl)amino)-3-((R)-3-(3-methyl-2-oxoimidazolidin-1-yl)piperidin-1-yl)-1,2,4-triazin-6-carboxamide] here?
Answer: < 1 nM

Question: With `CN1CCN(C2CC3CC2N(c2cnc(C(N)=O)c(Nc4ccc(C5CCN(C6CN(c7ccc8c(c7)C(=O)N(C7CCC(=O)NC7=O)C8=O)C6)CC5)cc4)n2)C3)C1=O` (centres unmarked) [Compound 046, 3-((4-(1-(1-(2-(2,6-dioxopiperidin-3-yl)-1,3-dioxoisoindolin-5-yl)azetidin-3-yl)piperidin-4-yl)phenyl)amino)-5-(-6-(3-methyl-2-oxoimidazolin-1-yl)-2-azabicyclo[2.2.1]heptan-2-yl)pyrazin-2-carboxamide] as the compound, how does the DC50 read?
Answer: < 1 nM

Question: `NC(=O)c1nnc(N2CCCC(N3CCN(c4ccccc4)C3=O)C2)nc1Nc1ccc2c(c1)CCN(C1CN(c3ccc4c(c3)C(=O)N(C3CCC(=O)NC3=O)C4=O)C1)C2` (centres unmarked) [Compound 093] was tested. Which DC50 did it give?
Answer: > 1 nM

Question: With `CN1CCN(C2CCCN(c3nnc(C(N)=O)c(Nc4ccc(C5CCN(C6CN(c7ccc8c(c7)C(=O)N(C7CCC(=O)NC7=O)C8=O)C6)CC5)cc4)n3)C2)C1=O` (centres unmarked) [Compound 077, 5-((4-(1-(1-(2-(2,6-dioxopiperidin-3-yl)-1,3-dioxoisoindol-5-yl)azetidin-3-yl)piperidin-4-yl)phenyl)amino)-3-(3-(3-methyl-2-oxoimidazolin-1-yl)piperidin-1-yl)-1,2,4-triazin-6-carboxamide] as the compound, how does the DC50 read?
Answer: < 1 nM

Question: `CN1CCN([C@@H]2CCCN(c3nnc(C(N)=O)c(Nc4ccc(N5CCN(CC6CCN(c7ccc(N8CCC(=O)NC8=O)cc7)CC6)C(=O)C5)c(F)c4)n3)C2)C1=O` [Compound 235, (R)-5-((4-(4-((1-(4-(2,4-dioxotetrahydropyrimidin-1(2H)-yl)phenyl)piperidin-4-yl)methyl)-3-oxopiperazin-1-yl)-3-fluorophenyl)amino)-3-(3-(3-methyl-2-oxoimidazolidin-1-yl)piperidin-1-yl)-1,2,4-triazin-6-carboxamide] was tested. Which DC50 did it give?
Answer: < 1 nM
